Source: patent publication US6462170B1, “UPAR mimicking peptide” (Fondazione Centro San Raffaele del Monte Tabor, priority 1997, dated 2002)
Entries after “also recorded” stand apart in the source; their conditions may differ.

Tests used:
[1] = molecular target: uPAR (Homo sapiens, UniProt Q03405); conditions: read-out: affinity of binding to uPAR; cited from earlier work
[2] = test system: THP-1 cells; assay: Chemotaxis assay in modified Boyden chambers; type: cell-based, human; conditions: for chemotactic response of THP-1 cells: Boyden chamber, 90 minutes, migration as percent of control, over the concentration range analyzed; for concentration giving maximal chemotactic response: THP-1 cells, FIG. 4 panels A and C; for concentration at which very potent chemotactic activity is seen: human THP-1 monocytoid cells (and murine LB6 fibroblastic cells)
Protocol: FIG. 3. […] For each set of experiments, migration toward the assay medium served as control (random cell migration) and is referred to as 100% migration. All experiments were performed in triplicate; the number of cells counted per high power field (ten fields for each condition) is expressed as percent of the control values. The proteins were purified as described in the Methods section. Data points represent the mean of three independent experiments (+SEM). The constructs used are depicted in FIG. 2.
Chemotaxis analysis were performed using modified Boyden chambers containing polyvinylpyrrolidone polycarbonate filters (13 mm diameter, […]) coated with collagen type I ([…] in PBS pH 7.4). The coated filters were washed with medium supplemented with 0.2% bovine serum albumin (BSA) and then placed in the Boyden apparatus. After acid wash, 2×10^5 THP-1 cells suspended in serum-free medium were added above the filter in the Boyden chamber. Purified mutants were diluted in serum-free medium at the indicated concentrations and added below the filter in the lower chamber. The chambers were incubated in a humidified incubafor at 37° C. in 5% CO2 in air for 90 minutes. Filters were removed, the upper surface scraped free of cells, fixed in methanol and stained with crystal violet. For each set of experiments, migration toward the assay medium served as control (random cell migration) and is referred to as 100% migration. All experiments were performed in triplicate; data are reported as number of cells counted for high power field (ten fields for each condition) and expressed as percentage of the control values. Data points represent the mean of three independent experiments (+SEM). When cells of the fibroblast-type or cancer cells were employed for the assay, the time required for migration was higher and the Boyden chamber were usually incubated overnight.

[3] = test system: p56/p59hck; assay: p56/p59hck immunoprecipitation and in vitro kinase assay after treatment of THP-1 cells; type: cell-based, human
Protocol: FIG. 5. In this figure, the stimulating effect of peptide 1 on the activity of Hck kinase of THP-1 cells is shown. THP-1 cells were metabolically labelled with [35S]-TransLabel, acid washed, and either mock-treated or treated with 0.1 nM peptide 1 (AVTYSRSRYLEC, (SEQ ID NO:1)) for the indicated time at 37° C. Radiolabelled cell lysates were immunoprecipitated (Resnati et al., 1996) using an affinity-purified rabbit polyclonal anti-p56/p59hck antibody.
(A) An aliquot from each immunoprecipitate was directly analyzed by SDS-PAGE to control that equal amount of p56/p59hck were present during in vitro kinase assay.
(B) The remainder of each immunoprecipitate was subjected to in vitro kinase assay in presence of […] of [g-32P]ATP (˜3000 Ci/mmol, Amersham) and […] rabbit muscle enolase for 5 minutes at room temperature. Eluates were thus analyzed by SDS-PAGE autobiography (7.5% acrylamide).
The mixture of chymotrypsin fragments of suPAR, like the uPA/uPAR interaction, induces chemotaxis by transiently activating the p56/p59hck protein kinase (Resnati et al., 1996). If human uPAR-related peptides containing the SRSRY (SEQ ID NO:7) motif induce a chemotactic response on THP-1 cells though the same mechanism exploited by the uPA/uPAR interaction (i.e. by binding to the unidentified adaptor), they should also activate p56/p59hck. THP-1 cells were metabolically labelled with [35S]-TransLabel, acid washed, and either mock-treated or treated with 0.1 nM peptide 1 (AVTYSRSRYLEC (SEQ ID NO:1)) for the indicated time at 37° C. Radiolabelled cell lysates were immunoprecipitated (Resnati et al.,1996) using an affinity-purified rabbit polyclonal anti-p56/p59hck antibody. An aliquot from each immunoprecipitate was directly analyzed by SDS-PAGE to control that equal amount of p56/p59hck were present during in vitro kinase assay (FIG. 5, panel A). The remainder of each immunoprecipitate was subjected to in vitro kinase assay in presence of […] of [g-32P)]ATP (˜3000 Ci/mmol, Amersham) and […] rabbit muscle enolase (substrate) for 5 minutes at room temperature. Eluates were thus analyzed by SDS-PAGE autobiography (7.5% acrylamide). […] The effect was very rapid, since p56/pS9hck stimulation was already- evident after 2 minutes, reached a maximum after […] and returned to the basal level 30 minutes after the addition of the peptide. No effect on p56/p59hck activity was observed when 0.1 nM of the corresponding scrambled peptide was used in the assay (data not shown). The time-course of the effect is identical to that observed with the addition of ATF or of chymotryptic uPAR fragments to THP-1 cells and reported previously (Resnati et al., 1996).

[4] = test system: cells binding to D1(1-92)- or peptide-coated plates; assay: Panning / cell adhesion on coated plastic plates; type: cell-based; conditions: for adhesion of mammalian cells to plastic plates coated with the substance: bacterial-grade plastic dishes coated with the substance; for inhibition of adhesion of cells onto D1(1-92): plates coated with D1(1-92)
Protocol: However, when those plates are coated with peptide 1 or 2 (or domain D1-1-92) or with recombinant forms of these peptides, they adhere because they express on their surface specific D1(1-92)-binding proteins. The adhesion can be measured.
As a positive control (i.e. to set up the technique), cells (106) exposing a high number of uPAR molecules are used and the panning is carried out on plates coated with a specific anti-uPAR antibody. As a negative control, the same cells but now not expressing uPAR are employed. The cells employed as negative controls are LB6, 32D, 3T3 fibroblasts, B-lymphoid cell lines and others. As positive controls, THP-1 cells, LB6/uPAR, 32D/uPAR and other expressing cell lines are employed.
For the screening assay, the same cells employed as negative controls (106) are used, and the plates are coated with domain D1(1-92) or domain D1(1-87) (control). The ability of the cells to bind to the plates is tested after 30-300 minutes incubation at 37° C. by microscopic inspection, or by staining the plates with Coomassie Blue. The same can be done using different techniques.
The ability of peptides 1- or 2-coated plates to specifically bind the THP-1 cells is the basis for the screening technique, as any compound capable of inhibiting this binding is a potential antiinflammatory agent, inhibiting chemotaxis. […] Such compounds, therefore, can be tested as inhibitors of chemotaxis, employing the methods outlined in examples 1-3. Coating can also be carried out with other recombinant forms of the SRSRY (SEQ ID NO:7) sequence in which the epitope is synthesized in fusion with other proteins. Suitable proteins are ferritin (Sidoli et al. (1993)), thioredoxin, GST, beta galactosidase, human serum albumin.

Sequence of uPAR (Q03405 23-305): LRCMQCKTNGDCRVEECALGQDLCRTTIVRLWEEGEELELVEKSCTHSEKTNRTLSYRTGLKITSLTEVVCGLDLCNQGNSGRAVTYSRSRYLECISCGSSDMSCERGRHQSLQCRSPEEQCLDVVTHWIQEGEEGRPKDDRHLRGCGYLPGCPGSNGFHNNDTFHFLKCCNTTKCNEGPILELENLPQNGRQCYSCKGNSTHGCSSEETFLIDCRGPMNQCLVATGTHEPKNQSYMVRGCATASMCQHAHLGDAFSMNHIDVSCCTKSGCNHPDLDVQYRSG

Row | Substance | chemotactic response of THP-1 cells [2] | concentration giving maximal chemotactic response [2] | concentration at which very potent chemotactic activity is seen [2] | adhesion of mammalian cells to plastic plates coated with the substance [4] | inhibition of adhesion of cells onto D1(1-92) [4] | further results
1 | vitronectin: protein bound by uPAR domains D2 and D3 | – | – | – | – | – | Kd [1]: 10 to 20 nM
2 | YTARLWGGTLLT [peptide 3, reference compound] | no effect on cell migration | – | – | – | – | –
3 | AVTYSRSRYLEC [peptide 1] | dose-dependent chemotactic effect; also recorded: very potent activity | 0.1 pM | 0.1 pM | adhere | inhibit adhesion | time at which p56/p59hck stimulation is already evident ([3]; 0.1 nM peptide): 2 min; autophosphorylation of p56/p59hck ([3]; 0.1 nM peptide, 37° C.): increase; phosphorylation of the exogenous substrate (rabbit muscle enolase) ([3]; 0.1 nM peptide, 37° C.): increase; time of return of p56/p59hck activity to the basal level ([3]; 0.1 nM peptide, after addition of the peptide): 30 min
4 | SRSRYLEC [peptide 2] | dose-dependent chemotactic effect; also recorded: very potent activity | 0.1 pM | 0.1 pM | adhere | inhibit adhesion | –
5 | TLVEYYSRASCR [reference compound] | no effect on cell migration | – | – | – | cannot | chemotactic response of THP-1 cells ([2]; listed as peptide-1 scrambled): do not; effect on p56/p59hck activity ([3]; 0.1 nM (data not shown)): No effect
